From ChEMBL document CHEMBL1130228, “Potent and selective 1,2,3-trisubstituted indole NPY Y-1 antagonists” (J Med Chem, 1997)

Columns and labels:
[1] = biological target: T1, Neuropeptide Y receptor type 1 (Homo sapiens, UniProt P25929); test: Binding affinity for Neuropeptide Y receptor type 1 expressed in AV-12 cells; assay type: cell-based, AV12
T1 sequence (P25929 whole entry): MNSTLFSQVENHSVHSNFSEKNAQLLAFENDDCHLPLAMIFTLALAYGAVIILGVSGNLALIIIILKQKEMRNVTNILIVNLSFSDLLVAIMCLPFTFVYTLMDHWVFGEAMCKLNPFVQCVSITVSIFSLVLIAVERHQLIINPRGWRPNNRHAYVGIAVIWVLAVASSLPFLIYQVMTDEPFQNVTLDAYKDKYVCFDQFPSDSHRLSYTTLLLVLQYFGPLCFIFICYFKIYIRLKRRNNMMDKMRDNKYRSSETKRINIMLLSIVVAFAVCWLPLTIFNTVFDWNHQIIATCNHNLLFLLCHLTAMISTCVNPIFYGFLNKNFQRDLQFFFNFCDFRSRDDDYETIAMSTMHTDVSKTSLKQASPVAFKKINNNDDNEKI

[2] = biological target: T2, Neuropeptide Y receptor type 5 (Homo sapiens, UniProt Q15761); test: Affinity for human Neuropeptide Y receptor type 5
T2 sequence (Q15761 whole entry): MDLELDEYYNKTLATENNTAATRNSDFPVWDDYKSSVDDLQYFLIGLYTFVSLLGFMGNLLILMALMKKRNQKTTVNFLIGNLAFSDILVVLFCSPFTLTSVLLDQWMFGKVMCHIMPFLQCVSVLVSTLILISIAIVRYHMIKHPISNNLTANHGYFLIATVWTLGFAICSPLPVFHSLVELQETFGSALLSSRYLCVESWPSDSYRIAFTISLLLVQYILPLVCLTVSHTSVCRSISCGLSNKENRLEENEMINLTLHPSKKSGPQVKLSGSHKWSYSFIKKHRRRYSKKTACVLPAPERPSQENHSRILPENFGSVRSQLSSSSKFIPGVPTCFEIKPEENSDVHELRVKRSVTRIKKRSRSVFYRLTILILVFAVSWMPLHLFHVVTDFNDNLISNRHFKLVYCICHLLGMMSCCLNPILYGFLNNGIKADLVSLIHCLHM

[3] = biological target: T3, Neuropeptide Y receptor type 2 (Homo sapiens, UniProt P49146); test: Affinity for human Neuropeptide Y receptor type 2
T3 sequence (P49146 whole entry): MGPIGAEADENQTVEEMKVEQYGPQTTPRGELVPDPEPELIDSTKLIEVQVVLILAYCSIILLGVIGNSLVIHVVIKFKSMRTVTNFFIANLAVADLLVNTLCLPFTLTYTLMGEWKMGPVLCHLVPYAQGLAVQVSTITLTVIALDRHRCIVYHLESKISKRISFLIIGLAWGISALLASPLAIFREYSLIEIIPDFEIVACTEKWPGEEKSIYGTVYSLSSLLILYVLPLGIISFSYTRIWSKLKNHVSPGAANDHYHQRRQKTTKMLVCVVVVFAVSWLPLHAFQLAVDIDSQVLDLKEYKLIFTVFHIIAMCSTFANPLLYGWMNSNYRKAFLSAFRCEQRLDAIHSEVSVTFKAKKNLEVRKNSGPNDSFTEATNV

[4] = biological target: Neuropeptide Y receptor type 4 (Homo sapiens, UniProt P50391); test: Affinity for human Neuropeptide Y receptor type 4
[5] = tested on: SK-N-MC; test: Ability to reverse NPY-induced intracellular [Ca2+] mobilization in SK-N-MC cells; assay type: functional, cell-based, Homo sapiens
[6] = biological target: T1, Neuropeptide Y receptor type 1; test: Ability to reverse Neuropeptide Y receptor type 1-induced inhibition of forskolin-induced inhibition of forskolin-stimulated cAMP; assay type: functional
[7] = tested on: Mus musculus; test: Ability to block increase in food consumption elicited by NPY (230 pmol, icv) into lateral ventricle of mice; assay type: functional

Chain of Neuropeptide Y receptor type 4 (P50391 whole entry): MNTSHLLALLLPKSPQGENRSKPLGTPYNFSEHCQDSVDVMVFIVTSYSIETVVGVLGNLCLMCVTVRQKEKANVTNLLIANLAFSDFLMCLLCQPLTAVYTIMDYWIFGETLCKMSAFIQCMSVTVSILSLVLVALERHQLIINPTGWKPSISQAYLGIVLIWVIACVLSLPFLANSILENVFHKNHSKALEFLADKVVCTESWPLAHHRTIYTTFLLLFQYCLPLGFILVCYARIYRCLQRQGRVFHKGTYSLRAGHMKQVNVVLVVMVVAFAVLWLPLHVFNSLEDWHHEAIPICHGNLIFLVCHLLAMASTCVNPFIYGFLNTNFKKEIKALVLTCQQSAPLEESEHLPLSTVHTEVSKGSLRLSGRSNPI

| SMILES | Ki [1] [nM] | Ki [2] [µM] | Ki [3] [µM] | Ki [4] [µM] | Ki [5] [nM] | Ki [6] [nM] | ED50 [7] [nM] |
| --- | --- | --- | --- | --- | --- | --- | --- |
| Cn1c(COc2ccc(Cl)cc2Cl)c(CN2CCCCC2)c2ccccc21 | 1260 | > 10 | > 10 | > 10 |  |  |  |
| O=C(CN1CCC(N2CCCCC2)CC1)c1c(COc2ccc(Cl)cc2)n(CCC2CCNCC2)c2ccccc12 | 1.9 | > 10 | > 10 | > 10 |  |  |  |
| Cn1c(COc2ccc(Cl)cc2)c(CN2CCC(N3CCCCC3)CC2)c2ccccc21 | 559 | > 10 | > 10 | > 10 |  |  |  |
| O=C(CN1CCC(N2CCCCC2)CC1)c1c(COc2ccc(Cl)cc2)n(CCC[C@@H]2CCCNC2)c2ccccc12 | 0.75 | > 10 | > 10 | > 10 | 3.2 | 1.8 | 17 |
| N=C(N)NCCC[C@@H](NC(=O)C(c1ccccc1)c1ccccc1)C(=O)NCc1ccc(O)cc1 |  | > 10 | > 10 | > 10 |  |  |  |
| Clc1ccc(OCc2c(CN3CCC(N4CCCCC4)CC3)c3ccccc3n2CCN2CCCCC2)cc1 | 98 | > 10 | > 10 | > 10 |  |  |  |
| Cn1c(COc2ccc(Cl)cc2)c(CN2CCCCC2)c2ccccc21 | 2320 | > 10 | > 10 | > 10 |  |  |  |
| Cn1c(COc2ccc(Cl)cc2)c(CCN2CCCCC2)c2ccccc21 | 2880 | > 10 | > 10 | > 10 |  |  |  |
| Cn1c(COc2ccc(Cl)cc2)c(CCN2CCC(N3CCCCC3)CC2)c2ccccc21 | 93 | > 10 | > 10 | > 10 |  |  |  |
| Cn1c(COc2ccc(Cl)cc2)c(C(=O)C(=O)N2CCC(N3CCCCC3)CC2)c2ccccc21 | 440 | > 10 | > 10 | > 10 |  |  |  |
| O=C(CN1CCC(N2CCCCC2)CC1)c1c(COc2ccc(Cl)cc2)n(CCC[C@H]2CCCNC2)c2ccccc12 | 1.4 | > 10 | > 10 | > 10 |  |  |  |
| Cn1c(COc2ccc(Cl)cc2)c(C(=O)CN2CCC(N3CCCCC3)CC2)c2ccccc21 | 26 | > 10 | > 10 | > 10 |  |  |  |
